According to PubChem BioAssay (NCI):
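Assay format: 96-well plates, 48-hour exposure. Abbreviation: GI50, concentration required for 50% inhibition of growth. TGI: concentration producing complete growth inhibition.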

What was measured:
Assay in all cases: growth of human tumour cells (NCI), 48 h
M14 melanoma = test system: M14 melanoma
MDA-MB-435 = test system: MDA-MB-435
SF-268 CNS = test system: SF-268 CNS
786-0 renal = test system: 786-0 renal
SF-539 CNS = test system: SF-539 CNS
SR leukemia = test system: SR leukemia
KM12 colon = test system: KM12 colon
HT29 colon = test system: HT29 colon
SK-MEL-5 melanoma = test system: SK-MEL-5 melanoma
SK-MEL-28 melanoma = test system: SK-MEL-28 melanoma
NCI/ADR-RES ovarian = test system: NCI/ADR-RES ovarian
SW-620 colon = test system: SW-620 colon
A498 renal = test system: A498 renal
OVCAR-5 ovarian = test system: OVCAR-5 ovarian
UACC-257 melanoma = test system: UACC-257 melanoma
MOLT-4 leukemia = test system: MOLT-4 leukemia
U251 CNS = test system: U251 CNS
DU-145 prostate = test system: DU-145 prostate
SNB-75 CNS = test system: SNB-75 CNS
HCT-15 colon = test system: HCT-15 colon
SK-MEL-2 melanoma = test system: SK-MEL-2 melanoma
SN12C renal = test system: SN12C renal
A549 NSCLC = test system: A549 NSCLC
HS 578T breast = test system: HS 578T breast
SNB-19 CNS = test system: SNB-19 CNS
MDA-MB-231 breast = test system: MDA-MB-231 breast
HOP-92 NSCLC = test system: HOP-92 NSCLC
NCI-H23 lung = test system: NCI-H23 lung
HCT-116 colon = test system: HCT-116 colon
SF-295 CNS = test system: SF-295 CNS
LOX IMVI melanoma = test system: LOX IMVI melanoma
PC-3 prostate = test system: PC-3 prostate
RXF 393 renal = test system: RXF 393 renal
COLO 205 colon = test system: COLO 205 colon
NCI-H460 lung = test system: NCI-H460 lung
RPMI-8226 leukemia = test system: RPMI-8226 leukemia
UO-31 renal = test system: UO-31 renal
IGROV1 ovarian = test system: IGROV1 ovarian
BT-549 breast = test system: BT-549 breast
ACHN renal = test system: ACHN renal
UACC-62 melanoma = test system: UACC-62 melanoma
HOP-62 NSCLC = test system: HOP-62 NSCLC
CCRF-CEM leukemia = test system: CCRF-CEM leukemia
MCF7 breast = test system: MCF7 breast
OVCAR-3 ovarian = test system: OVCAR-3 ovarian
TK-10 renal = test system: TK-10 renal
OVCAR-8 ovarian = test system: OVCAR-8 ovarian
OVCAR-4 ovarian = test system: OVCAR-4 ovarian
T-47D breast = test system: T-47D breast
EKVX NSCLC = test system: EKVX NSCLC
MALME-3M melanoma = test system: MALME-3M melanoma
NCI-H226 lung = test system: NCI-H226 lung
NCI-H522 lung = test system: NCI-H522 lung
HCC-2998 colon = test system: HCC-2998 colon
CAKI-1 renal = test system: CAKI-1 renal
HL-60(TB) leukemia = test system: HL-60(TB) leukemia

O=C(CCN1CCCC1)Nc1ccc2c(Nc3ccc(F)cc3)c3ccccc3nc2c1
GI50 (M14 melanoma): 1.64 µM
TGI (M14 melanoma): 3.53 µM
GI50 (MDA-MB-435): 1.58 µM
TGI (MDA-MB-435): 3 µM
GI50 (SF-268 CNS): 1.19 µM
TGI (SF-268 CNS): 2.82 µM
GI50 (786-0 renal): 1.21 µM
TGI (786-0 renal): 2.77 µM
GI50 (SF-539 CNS): 1.61 µM
TGI (SF-539 CNS): 3.05 µM
GI50 (SR leukemia): 0.174 µM
TGI (SR leukemia): 2.3 µM
GI50 (KM12 colon): 1.48 µM
TGI (KM12 colon): 4.11 µM
GI50 (HT29 colon): 0.734 µM
TGI (HT29 colon): 3.72 µM
GI50 (SK-MEL-5 melanoma): 1.53 µM
TGI (SK-MEL-5 melanoma): 2.88 µM
GI50 (SK-MEL-28 melanoma): 1.7 µM
TGI (SK-MEL-28 melanoma): 3.24 µM
GI50 (NCI/ADR-RES ovarian): 2.11 µM
TGI (NCI/ADR-RES ovarian): 7.4 µM
GI50 (SW-620 colon): 0.64 µM
TGI (SW-620 colon): 2.29 µM
GI50 (A498 renal): 1.03 µM
TGI (A498 renal): 4.89 µM
GI50 (OVCAR-5 ovarian): 1.95 µM
TGI (OVCAR-5 ovarian): 4.7 µM
GI50 (UACC-257 melanoma): 1.97 µM
TGI (UACC-257 melanoma): 4.12 µM
GI50 (MOLT-4 leukemia): 0.133 µM
TGI (MOLT-4 leukemia): 3.02 µM
GI50 (U251 CNS): 1.17 µM
TGI (U251 CNS): 3.03 µM
GI50 (DU-145 prostate): 0.513 µM
TGI (DU-145 prostate): 2.03 µM
GI50 (SNB-75 CNS): 1.37 µM
TGI (SNB-75 CNS): 2.72 µM
GI50 (HCT-15 colon): 0.699 µM
TGI (HCT-15 colon): 2.53 µM
GI50 (SK-MEL-2 melanoma): 1.85 µM
TGI (SK-MEL-2 melanoma): 3.64 µM
GI50 (SN12C renal): 0.523 µM
TGI (SN12C renal): 2.43 µM
GI50 (A549 NSCLC): 0.424 µM
TGI (A549 NSCLC): 3.62 µM
GI50 (HS 578T breast): 1.74 µM
TGI (HS 578T breast): 4.54 µM
GI50 (SNB-19 CNS): 0.836 µM
TGI (SNB-19 CNS): 3.53 µM
GI50 (MDA-MB-231 breast): 1.48 µM
TGI (MDA-MB-231 breast): 3.34 µM
GI50 (HOP-92 NSCLC): 1.18 µM
TGI (HOP-92 NSCLC): 2.68 µM
GI50 (NCI-H23 lung): 1.08 µM
TGI (NCI-H23 lung): 2.63 µM
GI50 (HCT-116 colon): 0.906 µM
TGI (HCT-116 colon): 2.58 µM
GI50 (SF-295 CNS): 1.05 µM
TGI (SF-295 CNS): 2.32 µM
GI50 (LOX IMVI melanoma): 0.606 µM
TGI (LOX IMVI melanoma): 2.01 µM
GI50 (PC-3 prostate): 1.34 µM
TGI (PC-3 prostate): 3.97 µM
GI50 (RXF 393 renal): 1.23 µM
TGI (RXF 393 renal): 2.64 µM
GI50 (COLO 205 colon): 1.3 µM
TGI (COLO 205 colon): 3.51 µM
GI50 (NCI-H460 lung): 0.211 µM
TGI (NCI-H460 lung): 1.38 µM
GI50 (RPMI-8226 leukemia): 0.981 µM
TGI (RPMI-8226 leukemia): 5.51 µM
GI50 (UO-31 renal): 1.16 µM
TGI (UO-31 renal): 2.55 µM
GI50 (IGROV1 ovarian): 1.03 µM
TGI (IGROV1 ovarian): 3.27 µM
GI50 (BT-549 breast): 1.73 µM
TGI (BT-549 breast): 4.28 µM
GI50 (ACHN renal): 0.526 µM
TGI (ACHN renal): 1.98 µM
GI50 (UACC-62 melanoma): 1.55 µM
TGI (UACC-62 melanoma): 3.1 µM
GI50 (HOP-62 NSCLC): 0.864 µM
TGI (HOP-62 NSCLC): 3.7 µM
GI50 (CCRF-CEM leukemia): 0.274 µM
TGI (CCRF-CEM leukemia): 11.1 µM
GI50 (MCF7 breast): 0.147 µM
TGI (MCF7 breast): 1.89 µM
GI50 (OVCAR-3 ovarian): 1.68 µM
TGI (OVCAR-3 ovarian): 4.21 µM
GI50 (TK-10 renal): 1.66 µM
TGI (TK-10 renal): 3.97 µM
GI50 (OVCAR-8 ovarian): 1.56 µM
TGI (OVCAR-8 ovarian): 8.73 µM
GI50 (OVCAR-4 ovarian): 1.21 µM
TGI (OVCAR-4 ovarian): 3.03 µM
GI50 (T-47D breast): 1.01 µM
TGI (T-47D breast): 3.79 µM
GI50 (EKVX NSCLC): 1.89 µM
TGI (EKVX NSCLC): 4.69 µM
GI50 (MALME-3M melanoma): 1.57 µM
TGI (MALME-3M melanoma): 2.99 µM
GI50 (NCI-H226 lung): 1.41 µM
TGI (NCI-H226 lung): 3.21 µM
GI50 (NCI-H522 lung): 1.31 µM
TGI (NCI-H522 lung): 3.25 µM
GI50 (HCC-2998 colon): 1.16 µM
TGI (HCC-2998 colon): 2.52 µM
GI50 (CAKI-1 renal): 1.26 µM
TGI (CAKI-1 renal): 2.6 µM
GI50 (HL-60(TB) leukemia): 1.51 µM
TGI (HL-60(TB) leukemia): 3.75 µM
